# Values quoted from earlier work in patent US8735374B2, “Oral mucoadhesive dosage form” (Intelgenx Corp., priority 2009, dated 2014).
# Values joined by “and” are separate entries in the source; they are usually repeats but may differ in a detail not shown here. Equal values may be shown once.
# Conditions: oral administration; first pass hepatic metabolism, high lipid solubility
structure (smiles),measurement,value
"CCCCCc1cc(O)c2c(c1)OC(C)(C)[C@@H]1CCC(C)=C[C@@H]21 [THC, Δ^9-tetrahydrocannabinol]",portion of an administered dose that reaches systemic circulation,10 to 20% and 10-20%
